Data on eight compounds can be found in patent publication US7273863B1, “Benzophenones as inhibitors of reverse transcriptase” (SmithKline Beecham Corporation, priority 1999, dated 2007).

SMILES strings stand for the structures.

What all share (experiment): HeLa cell assay (HIV-LTR β-galactosidase reporter)
The subject of assay [1] is isogenic HIV-1 RT mutant virus V106I. The class given is cell-based. The conditions noted are these: Human immunodeficiency virus 1, HeLa, read-out: IC50 (nM) Range. The protocol:
(§1) The HeLa cell assay was performed according to a modification of Kimpton J. and Emerman M., Detection of replication-competent and pseudotyped human immunodeficiency virus with a sensitive cell line on the basis of activation of an integrated β-galactosidase gene, J. Virol. 66:2232-2239 (1992), in which HIV-1 infection is detected by the activation of an HIV-LTR driven β-galactosidase reporter that is integrated into the genome of a CD4^+ HeLa cell line. Quantitation of β-galactosidase is achieved by measuring the activation of a chemiluminescent substrate (Tropix). The concentration of each compound required to inhibit 50% (IC50) of the HIV-1 induced β-galactosidase signal, relative to untreated controls, was determined for each isogenic, recombinant virus.
(§2) HeLa-CD4-LTR-β-gal cells were obtained from the NIH AIDS Research and Reference Reagent Program. Cells were propagated in DMEM containing 10% fetal bovine serum, 0.2 mg/ml geneticin and 0.1 mg/ml hygromycin B. Cells were routinely split by trypsinization when confluency reached 80% (approximately every 2 to 3 days).
(§3) DNA encoding the HIV-1 reverse transcriptase was subcloned from a M13 phage into a general shuttle vector, pBCSK+, as a ˜1.65 kbp EcoRI/HindIII ended DNA fragment. The HIV DNA insert of the resulting plasmid, pRT2, was completely sequenced on both strands prior to use in site directed mutagenesis experiments. Specific amino acid replacements were made using Stratagene Quick Change reagents and mutagenic oligonucleotides from Oligos. Following mutagenesis, the entire mutant RT coding sequence was verified by sequencing both DNA strands.
(§4) Mutant HIV-1 strains were isolated by a modified Recombinant Virus Assay (Kellam P. and Larder B., Recombinant virus assay: a rapid, phenotypic assay for assessment of drug susceptibility of human immunodeficiency virus type 1 isolates, Antimicrobial Agents and Chemotherapy, 38:23-30, 1994). 1×10^7 Jurkat T-cells (maintained in RPMI containing 10% fetal bovine serum, split 1:5 every 5 to 6 days) were co-transfected with EcoRI/HindIII digested mutant RT plasmid and Bst EII-digested HIV-1HXB2ΔRT DNA in the presence of DMRIE-C transfection reagent (Gibco) according to supplier's recommended protocol. Each mutant RT coding sequence was crossed into the RT-deleted HIV-1 viral DNA backbone by in vivo homologous recombination. Transfected cell cultures were expanded and monitored until syncitia formation and CPE were extensive. Virus was harvested by clear spin of the culture supernatants and frozen at −80 C as primary stock. Recombinant progeny virus was sequenced in the RT region to confirm the mutant genotype. Virus stocks were further expanded by infection of Jurkat cells, harvested and stored as frozen aliquots. Stocks were titered in HeLa MAGI cells for assay.
(§5) The HIV-1HXB2 mutants were titered in the HeLa MAGI assay system to determine the relative light units (RLU) per ml, a measure of infectivity relevant for this assay system. Virus stocks were diluted in a 2-fold series into DMEM containing 10% fetal bovine serum plus 20 ug/ml DEAE-dextran and assayed as described in the Experimental Protocol section, below.
(§6) 96-well microtiter plate(s) (Costar #3598) were seeded with 3×10^3 HeLa-CD4-LTR-β-gal in 100 μl DMEM containing 10% fetal bovine serum. Plates were placed in a 37° C., 5% CO2 humidified incubator overnight. The following day, mutant virus stocks were thawed in a room temperature water bath and diluted into DMEM containing 10% fetal bovine serum and 20 μg/ml DEAE-dextran to achieve an input of 1500 to 2000 RLU/ml. All media was removed with an 8 channel manifold aspirator and 35 μl (50 to 70 total RLUs) of diluted virus was added to each well for virus adsorption. Plates were placed in a 37° C., 5% CO2 humidified incubator for 1.5 to 2 hours.
(§7) Compound titration plates were prepared at 1.35× final concentration during the virus adsorption period. […]

The subject of assay [2] is isogenic HIV-1 RT mutant virus V108I/Y181C. It is filed as cell-based. The conditions noted are these: Human immunodeficiency virus 1, HeLa, read-out: IC50 (nM) Range. The procedure: as §1, §2, §3, §4, §5, §6, §7
Assay [3] relates to isogenic HIV-1 RT mutant virus G190A. It is filed as cell-based. The conditions noted are these: Human immunodeficiency virus 1, HeLa, read-out: IC50 (nM) Range. The procedure: as §1, §2, §3, §4, §5, §6, §7
For assay [4], the system named is isogenic HIV-1 RT mutant virus Y181C. It is filed as cell-based. The conditions noted are these: Human immunodeficiency virus 1, HeLa, read-out: IC50 (nM) Range. The procedure: as §1, §2, §3, §4, §5, §6, §7
Assay [5] deals with isogenic HIV-1 RT mutant virus V108I. The class given is cell-based. The conditions noted are these: Human immunodeficiency virus 1, HeLa, read-out: IC50 (nM) Range. The protocol:
as §1, §2, §3, §4, §5, §6, §7

The test system of assay [6] is isogenic HIV-1 RT mutant virus K103N/Y181C. The class given is cell-based. The conditions noted are these: Human immunodeficiency virus 1, HeLa, read-out: IC50 (nM) Range. The protocol:
as §1, §2, §3, §4, §5, §6, §7

Assay [7] deals with isogenic HIV-1 RT mutant virus V106I/Y181C. It is filed as cell-based. The conditions noted are these: Human immunodeficiency virus 1, HeLa, read-out: IC50 (nM) Range. The protocol:
as §1, §2, §3, §4, §5, §6, §7

In assay [8] the test system is isogenic HIV-1 RT mutant virus L100I. It is filed as cell-based. The conditions noted are these: Human immunodeficiency virus 1, HeLa, read-out: IC50 (nM) Range. The protocol:
as §1, §2, §3, §4, §5, §6, §7

For assay [9], the system named is isogenic HIV-1 RT mutant virus K103N/P225H. The class given is cell-based. The conditions noted are these: Human immunodeficiency virus 1, HeLa, read-out: IC50 (nM) Range. The procedure: as §1, §2, §3, §4, §5, §6, §7
The test system of assay [10] is isogenic HIV-1 RT mutant virus K103N/V108I. It is filed as cell-based. The conditions noted are these: Human immunodeficiency virus 1, HeLa, read-out: IC50 (nM) Range. The protocol:
as §1, §2, §3, §4, §5, §6, §7

Assay [11] deals with isogenic HIV-1 RT mutant virus K103N/G190A. It is filed as cell-based. The conditions noted are these: Human immunodeficiency virus 1, HeLa, read-out: IC50 (nM) Range. The procedure:
as §1, §2, §3, §4, §5, §6, §7

Assay [12] has as its system isogenic HIV-1 RT mutant virus V106A/Y181C. It is filed as cell-based. The conditions noted are these: Human immunodeficiency virus 1, HeLa, read-out: IC50 (nM) Range. The protocol:
as §1, §2, §3, §4, §5, §6, §7

Assay [13] has as its system isogenic HIV-1 RT mutant virus P236L. The class given is cell-based. The conditions noted are these: Human immunodeficiency virus 1, HeLa, read-out: IC50 (nM) Range. The protocol:
as §1, §2, §3, §4, §5, §6, §7

Assay [14] has as its system isogenic HIV-1 RT mutant virus K103N. It is filed as cell-based. The conditions noted are these: Human immunodeficiency virus 1, HeLa, read-out: IC50 (nM) Range. The protocol:
as §1, §2, §3, §4, §5, §6, §7

The subject of assay [15] is isogenic HIV-1 RT mutant virus P225H. The class given is cell-based. The conditions noted are these: Human immunodeficiency virus 1, HeLa, read-out: IC50 (nM) Range. The procedure:
as §1, §2, §3, §4, §5, §6, §7

The next assay has as its system WTRVA. The class given is cell-based, HIV-1. The conditions noted are these: Human immunodeficiency virus 1, Virus Type WTRVA, read-out: IC50 (nM) Range. The procedure: as §1, §2, §3, §4, §5, §6, §7

For orientation: IC50 means the concentration needed to halve the response being measured. Turning to `Cc1cc(S(N)(=O)=O)ccc1NC(=O)COc1ccc(Cl)cc1C(=O)c1cc(Cl)cc(C#N)c1` [Compound 475], the IC50 in assay [1], in [2], in [3], in assay [4], in assay [5] and in assay [6] was less than 10 nM in each case. Further, the IC50 in assay [7] was 11 to 100 nM; in assay [8] it was less than 10 nM; in [9], less than 10 nM; in [10] it was less than 10 nM; in assay [11] it was less than 10 nM; in assay [12], less than 10 nM. Further, the IC50 (in [13]; in assay [14]; in assay [15]; in the assay on WTRVA) was less than 10 nM in each case.
With `Cc1cc(C#N)cc(C(=O)c2cc(Cl)ccc2OCC(=O)Nc2cnc(S(N)(=O)=O)cc2C)c1` [Compound 587], the IC50 in assay [1], in assay [2], in assay [3], in assay [4], in [5] and in [6] was less than 10 nM each time. For the same compound, the IC50 in [7] is 11 to 100 nM; in [8], less than 10 nM; in assay [9] it was less than 10 nM; in assay [10], less than 10 nM; in assay [11] it was less than 10 nM; in assay [12], less than 10 nM. Besides, the IC50 (in [13]; in assay [14]; in assay [15]; in the assay with WTRVA) was less than 10 nM in each case.
Take `Cc1cc(C#N)cc(C(=O)c2cc(Cl)ccc2OCC(=O)Nc2ccc(S(N)(=O)=O)cc2C)c1` [Compound 564]: the IC50 in assay [1], in assay [2], in assay [3], in assay [4], in assay [6] and in assay [7] was less than 10 nM each time. In addition, the IC50 in assay [8], in [9], in assay [10], in assay [11], in [12] and in [13] was less than 10 nM in each case. For the same compound, the IC50 (in assay [14]; in assay [15]; in the assay on WTRVA) was less than 10 nM in each case.
With `Cc1cc(C#N)cc(C(=O)c2cc(Cl)ccc2OCC(=O)Nc2ccc(S(N)(=O)=O)nc2C)c1` [Compound 503], the IC50 in [1], in assay [2], in [3], in [4], in [5] and in assay [6] was less than 10 nM each time. Also, the IC50 in [7], in assay [8], in [9], in assay [10], in assay [11] and in [12] was less than 10 nM in each case. For the same compound, the IC50 (in assay [13]; in [14]; in assay [15]; in the assay on WTRVA) was less than 10 nM each time.
With `Cc1cc(S(N)(=O)=O)ccc1NC(=O)COc1ccc(Cl)cc1C(=O)c1cccc(C#N)n1` [Compound 637], the IC50 in assay [1], in assay [2], in assay [3], in [4], in assay [6] and in assay [7] was less than 10 nM each time. Further, the IC50 in [8], in assay [9], in assay [10], in [11], in assay [12] and in assay [13] was less than 10 nM throughout. Besides, the IC50 (in [14]; in assay [15]; in the assay on WTRVA) was less than 10 nM each time.
Regarding `CCc1cc(C#N)cc(C(=O)c2cc(Cl)ccc2OCC(=O)Nc2ccc(S(N)(=O)=O)cc2C)c1` [Compound 498], the IC50 in [1], in [2], in assay [3], in [4], in assay [5] and in [6] was less than 10 nM in each case. Further, the IC50 in [7] is 11 to 100 nM; in assay [8] it was less than 10 nM; in assay [9] it was less than 10 nM; in assay [10] it was less than 10 nM; in [11], less than 10 nM; in assay [12] it was less than 10 nM. In addition, the IC50 (in assay [13]; in assay [14]; in assay [15]; with WTRVA) was less than 10 nM in each case.
As to `Cc1cc(C)cc(C(=O)c2cc(Cl)ccc2OCC(=O)Nc2ccc(S(N)(=O)=O)cc2C)c1` [Compound 478], the IC50 in assay [1], in assay [2], in assay [3], in assay [4], in assay [5] and in [6] was less than 10 nM each time. Besides, the IC50 in [7], in [8], in [9], in assay [10], in assay [11] and in [12] was less than 10 nM each time. In addition, the IC50 (in [13]; in assay [14]; in [15]; with WTRVA) was less than 10 nM throughout.
`Cc1cc(S(N)(=O)=O)ccc1NC(=O)COc1ccc(Cl)cc1C(=O)c1cc(F)cc(C#N)c1` [Compound 491]: the IC50 in assay [1], in assay [2], in [3], in assay [4], in assay [5] and in [6] was less than 10 nM throughout. Besides, the IC50 is 11 to 100 nM in assay [7]; less than 10 nM in assay [8]; less than 10 nM in [9]; less than 10 nM in [10]; 11 to 100 nM in assay [11]; less than 10 nM in assay [12]. Besides, the IC50 (in assay [13]; in [14]; in assay [15]; in the assay on WTRVA) was less than 10 nM throughout.
